In test [1] the test system is high affinity NP-specific IgG response. The test is described as follows: T-cell dependent NP-specific IgG response after NP-OVAL immunization, ELISA (Example 2). Particulars: 40 mg/kg/day via food admix from two days before NP-OVAL immunization until day 35, vs vehicle. Format: in vivo, mice. How it is done: 6 to 8-weeks-old female mice C57BL/6-Tg (hIgG1,k,l) were purchased from Charles River Laboratories (Germany) and housed at the animal facilities in room with air-conditioned under a 12 hours light/dark cycle in macrolon boxes with enriched environment and free access to water and food. The mice were injected at day −2 subcutaneously with 20 μg/mouse of NP-OVAL (4-Hydroxy-3-nitrophenylacetyl hapten conjugated to ovalbumin, Biosearch Technologies, USA, Batch No 060368) with adjuvant (Alhydrogel, InvivoGen #vac-alu-250) at the both flanks or without adjuvant at day 28. The dosage of (2S,4R)-4-[4-(1-methyl-1H-pyrazol-4-yl)-2-trifluoromethyl-benzenesulfonyl]-1-(1-trifluoromethyl-cyclopropanecarbonyl)-pyrrolidine-2-carboxylic acid (1-cyano-cyclopropyl)-amide consumption was 0 (vehicle), 1, 10, 40 mg/kg/day. […]
Nunc Maxisorp flat-bottom 96 well ELISA plates were coated with 100 μl per well of NP(4)-BSA (Biosearch Technologies N-5050L; 1 mg/mL) at 1 μg/mL in NaHCO3100 mM buffer and incubated overnight at +4° C. […] 100 μl of substrate P-nitrophenyl phosphate ready to use (Life Technologies, Cat no 002212) were added per well and after 10 min incubation at room temperature, the OD at 405 nm was read as an end-point measurement with a Versamax ELISA reader.
For orientation: ELISA stands for enzyme-linked immunosorbent assay.

For test [2], the system named is TCRβ+CD8+ T cells and NK1.1+ NKp46+ NK cells. In words: PD effect of CEA-IL2v in blood, flow cytometry of CD8 T cells and NK cells (Example 5). Format: in vivo. To be noted: mice of Example 4; cathepsin S inhibitor 40 mg/kg/day vs vehicle. How it is done: 15-week-old mice C57BL/6-Tg (hIgG1,k,l) and C57BL/6 wild type mixed gender were purchased from Taconic (Denmark) and housed at the animal facilities in room with air-conditioned under a 12 hours light/dark cycle in macrolon boxes with enriched environment and free access to water and food. 7×10 μg of CEA-IL2v (Batch no GLI0144-01) were injected at day 0, 4, 7, 11, 14, 18 and 21 for the primary response, and at day 49, 53, 56 and 60 for the memory response. The CEA-112v injections were done subcutaneously in the right flank or the left flank alternatively. The dosage of (2S,4R)-4-[4-(1-methyl-1H-pyrazol-4-yl)-2-trifluoromethyl-benzenesulfonyl]-1-(1-trifluoromethyl-cyclopropanecarbonyl)-pyrrolidine-2-carboxylic acid (1-cyano-cyclopropyl)-amide consumption was 40 mg/kg/day. […]
From Example 4, 50 μl of lithium heparin whole blood were transferred into a 5 ml polystyrene round-bottom tubes (BD Falcon, Cat. no 352058) and 2 ml of freshly prepared 1× Pharm Lyse™ lysing buffer (BD Bioscience, Cat. no 555899) with UltraPur™ distilled water (Invitrogen, Cat. no 10977-035) were added. […] Data were acquired with the BD FACSDiva software v8.0 on BD LSRFortessa™ cytometer and analyzed with FlowJo™ V10.

In the case of `Cn1cc(-c2ccc(S(=O)(=O)[C@@H]3C[C@@H](C(=O)NC4(C#N)CC4)N(C(=O)C4(C(F)(F)F)CC4)C3)c(C(F)(F)F)c2)cn1` [cathepsin S inhibitor, (2S,4R)-4-[4-(1-methyl-1H-pyrazol-4-yl)-2-trifluoromethyl-benzenesulfonyl]-1-(1-trifluoromethyl-cyclopropanecarbonyl)-pyrrolidine-2-carboxylic acid (1-cyano-cyclopropyl)-amide], the figures for the “NP-specific IgG levels (T-cell dependent IgG response against NP)” value in test [1] and in test [1] (listed as cathepsin S antagonist) were “significantly reduces NP-specific IgG levels” and “effectively abrogating the T-cell dependent IgG response against NP”, respectively. Moreover, in test [2], the “Effect on CEA-IL2v pharmacology (percentages of CD8 T cells and NK cells in blood)” value is given as “CEA-112v pharmacology is preserved”.

Values taken from patent US12419862B2, “Use of a cathepsin s inhibitor against the formation of anti-drug antibodies” (Hoffmann-La Roche Inc., priority 2018, dated 2025).
